{"source": "paper PMC6474902", "about": "“Examination of novel 4-aminoquinoline derivatives designed and synthesized by a hybrid pharmacophore approach to enhance their anticancer activities” (Scientific Reports, 2019)", "assay_type_in_all_cases": "cell-based, human", "key": {"MCF7": {"system": "MCF7", "assay": "SRB antiproliferative/antigrowth assay", "in_short": "(§1)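 Cells seeded 24 h before exposure to seven concentrations (100 µM to 0.0064 µM) for 48 h at 37 °C. Growth by TCA fixation and SRB staining, absorbance 515–564 nm, relative to time-zero and untreated controls; GI50 from variable-slope sigmoidal fit, reported as greater/less than range limits when not reached.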"}, "MDA-MB231": {"system": "MDA-MB231", "assay": "SRB antiproliferative/antigrowth assay", "conditions": "Homo sapiens, MDA-MB-231, 48 h, read-out: GI50 MB231", "in_short": "as §1"}, "MDA-MB468": {"system": "MDA-MB468", "assay": "SRB antiproliferative/antigrowth assay", "conditions": "Homo sapiens, MDA-MB-468, 48 h, read-out: GI50 MB468", "in_short": "as §1"}, "184B5": {"system": "184B5", "assay": "SRB antiproliferative/antigrowth assay, non-cancer cells", "conditions": "Homo sapiens, 184B5, 48 h, read-out: GI50 184B5", "in_short": "as §1"}, "MCF10A [1]": {"system": "MCF10A", "assay": "SRB antiproliferative/antigrowth assay, non-cancer cells", "in_short": "as §1"}, "[2]": {"system": "MDA-MB231, MDA-MB468, MCF7 breast cancer cells; 184B5 and MCF10A non-cancer breast cells", "assay": "SRB assay, panel of breast cancer and non-cancer breast cell lines", "conditions": "judged from GI50 values of Table 1", "procedure": "The antigrowth effects of 4-piperazinylquinoline sulfonyl analogs on human breast tumor cells was initially evaluated using MDA-MB468 (a PTEN defective, EGFR positive breast adenocarcioma), MDA-MB231 (p53 and pRB mutated, triple-negative breast carcinoma), and MCF7 (p53+/−, invasive ductal breast carcinoma) cell lines. In addition, the cytotoxicity of all the compounds was also evaluated with the 184B5 and MCF10A non-cancer immortalized breast epithelial cell lines, to determine if these newly synthesized compounds have differential cytotoxic effects on cancer and non-cancer cells. The panel of three breast cancer cell lines with different genetic back ground and the well-studied two non-cancer immortalized breast cell lines would provide insights into the efficacy and toxicity of the test compounds in the different genetic background and at different stages of tumor development. The dose response of each cell line was established by determining the number of viable cells after 48 h of continuous drug treatment against seven different concentrations (100 µM to 0.0064 µM) of each compound. The reading of sulphorodamine B (SRB) staining is known to accurately reflect the level of total cellular macromolecules/cell growth/proliferation[6],[23]. […] The data for CQ and cisplatin were included as references. […] The differences in the GI50 values may be attributable to such factors as the nature of the sulfonyl group and the halogen substitution on the 7th position of the 4-piperazinylquinoline ring system, and the genetic and biochemical background of the cell lines.\nAntiproliferative/antigrowth effects were determined by a SRB-based protocol[6],[23]. For a typical screening experiment, 5,000–10,000 cells were inoculated into 100 µL medium per well of a 96-well microtiter plate as described previously. Briefly, after the inoculation, the microtiter plate was incubated at 37 °C, 5% CO2, 95% air and 100% relative humidity for 24 h, prior to addition of experimental drugs. Some of the sample wells were fixed with 25 µL of 50% tricholoroacetic acid (TCA) as a control of the cell population for each cell line at the time of drug addition (Tz). An aliquot of the frozen stock was thawed and diluted to a desired final maximum test-concentration with complete medium. Two to ten-fold serial dilutions were made to provide a total of seven drug concentrations (and a control [C]). Following addition of drugs, the culture plate was incubated for additional 48 h. Cells were fixed in situ by slowly adding 25 µL of ice-cold 50% (w/v) TCA (final concentration, 10% TCA), and were then incubated for 60 min at 4 °C. The supernatant was discarded, and the plate was washed five times with tap water, followed by air-dry. 50 µL of SRB solution at 0.4% (w/v) in 1% acetic acid was added to each well, and the plate was incubated for >30 min at room temperature. Unbound SRB was removed by five washes with tap water, followed by air-drying. The cells “stained” with SRB were solubilized with 10 mM trizma base, and the absorbance was read on an automated plate reader at a wavelength of 515–564 nm. The relative growth rate (%) was calculated for each of the compound concentrations according to the following formula: (Ti−Tz)/(C−Tz)×100\nIn the formula, time zero (Tz), control growth (C), and OD for different concentration of tested compounds (Ti). The GI50 for each compound was obtained from a non-linear Sigmoidal dose-response (variable slope) curve which is fitted by GraphPad Prism v.4.03 software. Values were calculated for each of these parameters if the level of activity was reached. However, if the effect was not reached or was exceeded, the value for that parameter was expressed as greater or less than the maximum or minimum concentration tested."}, "NCI-60 cancer panel": {"system": "NCI-60 cancer panel", "assay": "NCI-60 cancer panel screening", "conditions": "screening carried out by the USA National Cancer Institute", "procedure": "Therefore, we examined its effects on several cellular and molecular biological aspects to gain a better understanding about its mode of function. […]\ncompound 13 show s effective grow th inhibition on a w ide range of cancers. Screening of compound 13 with the NCI-60 cancer panel was carried out by the USA National Cancer Institute.\n(1 picture or pasted object on this page, not shown here)"}, "MCF10A [3]": {"system": "MCF10A", "assay": "LysoTracker Red staining of lysosomal volume, non-cancer cells", "conditions": "5 μM, 48 h", "procedure": "Since the structure of compound 13 contains the main scaffold of CQ, we examined whether cells treated with compound 13 also results an increase in the lysosomal volume.\nLysoTracker Red sDND-99 staining was carried out as recommended by the manufacturer (Molecular Probes, Eugene, OR). Briefly, cells grown on a cover slip were incubated in 50 nM LysoTracker Red DND-99 in serum-free RPMI-1640 medium for 30 min and then rinsed once with serum-free medium. The cells were washed three times with ice-cold medium, incubated in fresh medium for 45 min at 37 °C, and then washed once with fresh medium. Subsequently, the cells were examined by fluorescence microscopy using two filters (for green and red images) sequentially. Merging the two color images was done using Northern Eclipse software.\nSham treated Compound 13 (5 μ M), 48 h\n(VR23) in non- cancer MCF10A, in contrast to cancer cells (MCF7, HeLa). […]"}}, "note": "“Also recorded” adds a separate entry of the source."}
{"smiles": "O=[N+]([O-])c1ccc(S(=O)(=O)N2CCN(c3ccnc4cc(Cl)ccc34)CC2)c([N+](=O)[O-])c1", "note": "[Compound 13, 7-Chloro-4-(4-(2,4-dinitrophenylsulfonyl)piperazin-1-yl)quinoline]", "values": [{"measurement": "GI50", "setting": "MCF7; Homo sapiens, MCF7, 48 h, read-out: GI50 MCF7", "value": "2.3 ± 0.1", "unit": "µM"}, {"measurement": "more effective than cisplatin (MCF7)", "setting": "MCF7; ratio of GI50 values", "value": 11.1, "unit": "fold"}, {"measurement": "GI50", "setting": "MDA-MB231", "value": "3.4 ± 0.1", "unit": "µM"}, {"measurement": "GI50", "setting": "MDA-MB468", "value": "0.7 ± 0.1", "unit": "µM"}, {"measurement": "GI50", "setting": "184B5", "value": "9 ± 0.1", "unit": "µM"}, {"measurement": "GI50", "setting": "MCF10A [1]; Homo sapiens, MCF-10A, 48 h, read-out: GI50 MCF10A", "value": "12.3 ± 0.1", "unit": "µM"}, {"measurement": "higher concentration required for the same GI50 against non-cancer than cancer cells", "setting": "MCF10A [1]; MDA-MB468 vs MCF10A", "value": "up to 17.6 fold"}, {"measurement": "preferential antigrowth effect on cancer versus non-cancer cells (in words)", "setting": "[2]", "value": "effective and preferential antigrowth effects on cancer cells; also recorded: stronger antigrowth/antiproliferation activity against cancer cells than non-cancer cells"}, {"measurement": "growth inhibition in NCI-60 cancer panel (in words)", "setting": "NCI-60 cancer panel", "value": "effective on many different human cancers"}, {"measurement": "lysosomal volume", "setting": "MCF10A [3]", "value": "does not increase; also recorded: did not show the same degree of increase in lysosomal volume"}]}
